Patent US11020399B2, “Intermediates useful in the synthesis of compounds as modulators of protein kinases” (Rhizen Pharmaceuticals SA, priority 2011, dated 2021)

How the values were obtained:
PI3kα = PI3kα (Homo sapiens, UniProt P42336); test: Fluorescent (HTRF) determination of PI3 kinase enzyme activity, PI3Kα; assay type: biochemical; conditions: 1 uM
How it was run: (§1)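 HTRF detection of PIP3 from PIP2 (1.38 μM in reaction mix) with 10 mM MgCl2, 5 mM DTT; compound preincubated with enzyme 10 min, then ATP (400 μM addition) 30 min at room temperature. Percent inhibition versus blank and enzyme controls at 1 μM (α, β) and 0.3 or 0.1 μM (γ, δ); IC50 also fitted.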

PI3kβ = PI3kβ (Homo sapiens, UniProt P42338); test: Fluorescent (HTRF) determination of PI3 kinase enzyme activity, PI3Kβ; assay type: biochemical; conditions: 1 uM
How it was run: as §1

PI3kγ = PI3kγ (Homo sapiens, UniProt P48736); test: Fluorescent (HTRF) determination of PI3 kinase enzyme activity, PI3Kγ; assay type: biochemical; conditions: 100 nM (Examples 60-137)
How it was run: as §1

PI3kδ = PI3kδ (Homo sapiens, UniProt O00329); test: Fluorescent (HTRF) determination of PI3 kinase enzyme activity, PI3Kδ; assay type: biochemical
How it was run: as §1

Chain of PI3kβ (P42338 whole entry): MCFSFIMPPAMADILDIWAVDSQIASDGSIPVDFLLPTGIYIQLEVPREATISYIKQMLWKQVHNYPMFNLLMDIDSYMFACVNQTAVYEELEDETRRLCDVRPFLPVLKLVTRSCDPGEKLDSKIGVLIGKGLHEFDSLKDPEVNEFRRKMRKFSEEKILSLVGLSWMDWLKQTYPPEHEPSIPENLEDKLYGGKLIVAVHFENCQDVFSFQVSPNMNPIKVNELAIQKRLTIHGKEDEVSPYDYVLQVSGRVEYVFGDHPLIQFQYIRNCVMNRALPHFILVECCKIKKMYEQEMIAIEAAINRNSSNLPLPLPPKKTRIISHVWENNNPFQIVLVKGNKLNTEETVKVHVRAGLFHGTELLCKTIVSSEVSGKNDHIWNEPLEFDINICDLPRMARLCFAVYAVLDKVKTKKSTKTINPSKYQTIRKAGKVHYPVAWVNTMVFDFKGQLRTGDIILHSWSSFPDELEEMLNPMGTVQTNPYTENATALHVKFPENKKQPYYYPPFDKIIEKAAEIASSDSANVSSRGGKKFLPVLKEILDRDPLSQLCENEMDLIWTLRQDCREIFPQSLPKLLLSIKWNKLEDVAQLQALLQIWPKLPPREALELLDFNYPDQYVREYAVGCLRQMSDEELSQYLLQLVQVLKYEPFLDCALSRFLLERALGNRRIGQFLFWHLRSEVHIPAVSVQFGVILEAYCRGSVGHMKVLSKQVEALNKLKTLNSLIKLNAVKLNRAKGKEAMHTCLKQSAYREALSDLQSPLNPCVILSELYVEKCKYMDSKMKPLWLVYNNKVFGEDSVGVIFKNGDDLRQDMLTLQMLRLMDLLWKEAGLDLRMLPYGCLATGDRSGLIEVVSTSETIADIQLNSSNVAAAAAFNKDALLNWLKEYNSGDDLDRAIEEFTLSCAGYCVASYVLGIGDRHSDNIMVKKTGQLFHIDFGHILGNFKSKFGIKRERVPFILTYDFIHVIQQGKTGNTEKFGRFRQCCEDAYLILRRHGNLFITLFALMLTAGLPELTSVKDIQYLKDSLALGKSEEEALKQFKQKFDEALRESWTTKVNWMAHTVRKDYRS
Chain of PI3kβ (P27986 whole entry partner): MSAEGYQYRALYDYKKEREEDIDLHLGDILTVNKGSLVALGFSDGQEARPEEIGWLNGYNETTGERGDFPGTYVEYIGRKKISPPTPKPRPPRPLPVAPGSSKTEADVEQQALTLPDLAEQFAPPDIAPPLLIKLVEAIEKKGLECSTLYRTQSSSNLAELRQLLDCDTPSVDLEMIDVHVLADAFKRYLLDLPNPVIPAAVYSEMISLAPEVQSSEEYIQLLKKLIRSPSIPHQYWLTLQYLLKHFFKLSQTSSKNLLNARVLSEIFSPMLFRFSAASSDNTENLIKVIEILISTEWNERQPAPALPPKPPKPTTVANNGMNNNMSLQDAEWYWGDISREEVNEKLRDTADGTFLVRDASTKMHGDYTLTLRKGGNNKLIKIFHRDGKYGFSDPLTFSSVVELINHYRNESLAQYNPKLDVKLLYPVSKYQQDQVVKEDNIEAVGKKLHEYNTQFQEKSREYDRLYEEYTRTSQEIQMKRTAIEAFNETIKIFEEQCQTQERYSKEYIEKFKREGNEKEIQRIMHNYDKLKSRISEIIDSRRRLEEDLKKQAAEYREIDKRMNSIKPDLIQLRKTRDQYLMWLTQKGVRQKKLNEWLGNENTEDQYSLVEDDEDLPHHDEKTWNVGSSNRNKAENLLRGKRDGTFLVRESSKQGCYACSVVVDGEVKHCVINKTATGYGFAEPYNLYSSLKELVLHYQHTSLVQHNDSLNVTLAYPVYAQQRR
Chain of PI3kα (P42336 whole entry): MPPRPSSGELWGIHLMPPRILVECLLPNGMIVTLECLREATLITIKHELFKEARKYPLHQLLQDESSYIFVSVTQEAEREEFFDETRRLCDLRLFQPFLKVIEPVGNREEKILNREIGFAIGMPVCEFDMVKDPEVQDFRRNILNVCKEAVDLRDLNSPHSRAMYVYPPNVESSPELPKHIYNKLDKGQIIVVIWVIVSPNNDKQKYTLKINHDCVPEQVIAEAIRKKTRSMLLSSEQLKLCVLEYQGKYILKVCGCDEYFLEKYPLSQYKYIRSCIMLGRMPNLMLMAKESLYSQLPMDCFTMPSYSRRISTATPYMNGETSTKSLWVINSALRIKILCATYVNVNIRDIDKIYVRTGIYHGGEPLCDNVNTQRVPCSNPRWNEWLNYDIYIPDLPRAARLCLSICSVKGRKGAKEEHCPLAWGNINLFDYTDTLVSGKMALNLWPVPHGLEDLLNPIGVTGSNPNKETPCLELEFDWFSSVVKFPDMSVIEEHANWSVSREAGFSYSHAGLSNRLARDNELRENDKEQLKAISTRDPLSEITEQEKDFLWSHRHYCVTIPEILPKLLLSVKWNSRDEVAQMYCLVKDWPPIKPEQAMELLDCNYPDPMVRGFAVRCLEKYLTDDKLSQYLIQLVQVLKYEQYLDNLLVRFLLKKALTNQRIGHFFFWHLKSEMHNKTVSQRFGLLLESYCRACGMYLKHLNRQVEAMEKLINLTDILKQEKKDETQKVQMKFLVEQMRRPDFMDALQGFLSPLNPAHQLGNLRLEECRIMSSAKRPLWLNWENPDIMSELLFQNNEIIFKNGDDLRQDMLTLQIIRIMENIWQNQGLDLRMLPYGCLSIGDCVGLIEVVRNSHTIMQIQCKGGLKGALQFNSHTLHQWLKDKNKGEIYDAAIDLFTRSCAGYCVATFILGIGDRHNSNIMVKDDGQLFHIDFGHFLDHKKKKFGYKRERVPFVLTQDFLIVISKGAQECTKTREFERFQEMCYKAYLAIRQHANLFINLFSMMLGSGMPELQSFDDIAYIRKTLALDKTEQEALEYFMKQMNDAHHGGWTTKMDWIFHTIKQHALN
Chain of PI3kα (P27986 whole entry partner): as the sequence (P27986 whole entry partner) above
Chain of PI3kδ (O00329 whole entry): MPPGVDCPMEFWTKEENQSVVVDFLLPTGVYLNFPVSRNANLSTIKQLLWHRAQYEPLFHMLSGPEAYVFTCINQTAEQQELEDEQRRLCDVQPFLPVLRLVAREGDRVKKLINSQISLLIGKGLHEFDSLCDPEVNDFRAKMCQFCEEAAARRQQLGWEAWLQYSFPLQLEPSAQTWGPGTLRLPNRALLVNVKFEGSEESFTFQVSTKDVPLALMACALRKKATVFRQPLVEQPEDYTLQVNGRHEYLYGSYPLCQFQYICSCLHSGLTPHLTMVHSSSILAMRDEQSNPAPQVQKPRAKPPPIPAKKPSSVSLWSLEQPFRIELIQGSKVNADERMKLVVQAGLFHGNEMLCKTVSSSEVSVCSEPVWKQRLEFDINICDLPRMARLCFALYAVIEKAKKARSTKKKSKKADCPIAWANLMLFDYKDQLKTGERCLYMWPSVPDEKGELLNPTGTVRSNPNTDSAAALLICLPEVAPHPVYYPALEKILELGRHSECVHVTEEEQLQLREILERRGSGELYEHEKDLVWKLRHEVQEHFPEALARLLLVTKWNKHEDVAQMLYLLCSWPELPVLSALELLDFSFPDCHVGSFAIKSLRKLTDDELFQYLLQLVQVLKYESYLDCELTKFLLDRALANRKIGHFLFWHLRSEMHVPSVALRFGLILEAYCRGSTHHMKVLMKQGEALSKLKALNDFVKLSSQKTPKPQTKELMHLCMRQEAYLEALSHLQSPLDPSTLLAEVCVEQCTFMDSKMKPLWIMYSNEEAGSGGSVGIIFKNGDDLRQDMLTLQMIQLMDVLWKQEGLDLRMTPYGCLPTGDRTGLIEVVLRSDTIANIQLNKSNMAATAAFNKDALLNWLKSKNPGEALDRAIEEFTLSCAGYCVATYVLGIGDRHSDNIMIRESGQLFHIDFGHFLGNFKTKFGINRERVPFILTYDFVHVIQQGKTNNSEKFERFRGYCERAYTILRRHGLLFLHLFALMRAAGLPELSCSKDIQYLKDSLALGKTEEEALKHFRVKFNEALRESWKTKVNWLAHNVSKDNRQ
Chain of PI3kδ (P27986 whole entry partner): as the sequence (P27986 whole entry partner) above
Chain of PI3kγ (P48736 whole entry): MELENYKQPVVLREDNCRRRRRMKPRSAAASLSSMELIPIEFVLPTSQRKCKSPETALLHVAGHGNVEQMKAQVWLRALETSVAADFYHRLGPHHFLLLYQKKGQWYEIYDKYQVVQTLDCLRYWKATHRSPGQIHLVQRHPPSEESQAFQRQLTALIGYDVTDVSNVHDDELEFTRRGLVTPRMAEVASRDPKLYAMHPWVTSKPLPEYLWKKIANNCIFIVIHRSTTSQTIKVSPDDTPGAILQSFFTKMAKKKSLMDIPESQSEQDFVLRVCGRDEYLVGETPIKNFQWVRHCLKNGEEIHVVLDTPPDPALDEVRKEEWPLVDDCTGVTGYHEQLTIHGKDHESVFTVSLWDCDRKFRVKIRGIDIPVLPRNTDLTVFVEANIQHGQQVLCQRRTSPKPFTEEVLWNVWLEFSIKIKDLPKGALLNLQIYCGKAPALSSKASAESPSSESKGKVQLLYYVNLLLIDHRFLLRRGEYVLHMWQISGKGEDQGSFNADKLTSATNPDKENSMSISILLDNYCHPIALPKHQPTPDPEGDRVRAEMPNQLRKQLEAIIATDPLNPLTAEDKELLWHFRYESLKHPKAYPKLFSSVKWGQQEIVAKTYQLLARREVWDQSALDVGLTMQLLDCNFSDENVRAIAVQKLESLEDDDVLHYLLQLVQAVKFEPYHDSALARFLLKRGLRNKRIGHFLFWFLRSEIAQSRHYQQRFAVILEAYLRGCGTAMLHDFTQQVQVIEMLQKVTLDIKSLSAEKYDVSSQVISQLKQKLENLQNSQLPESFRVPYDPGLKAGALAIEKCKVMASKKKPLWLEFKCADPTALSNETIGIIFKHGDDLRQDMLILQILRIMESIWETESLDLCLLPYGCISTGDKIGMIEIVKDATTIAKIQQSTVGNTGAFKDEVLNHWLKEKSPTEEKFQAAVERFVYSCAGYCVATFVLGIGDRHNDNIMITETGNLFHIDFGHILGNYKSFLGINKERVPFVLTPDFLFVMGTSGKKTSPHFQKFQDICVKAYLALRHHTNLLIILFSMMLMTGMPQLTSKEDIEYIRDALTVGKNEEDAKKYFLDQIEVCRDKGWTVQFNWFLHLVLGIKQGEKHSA

Q: With `CC(c1oc2cccc(F)c2c(=O)c1-c1cccc(F)c1)n1nc(C#CCO)c2c(N)ncnc21` (stereo not drawn) [Example 66, 2-(1-(4-amino-3-(3-hydroxyprop-1-ynyl)-1H-pyrazolo[3,4-d]pyrimidin-1-yl)ethyl)-5-fluoro-3-(3-fluorophenyl)-4H-chromen-4-one] as the molecule, how does the inhibition at 1 µM (PI3kα) read?
A: 25 to 50%

Q: And the inhibition at 1 µM (PI3kβ)?
A: 25 to 50%

Q: What about the inhibition at 0.1 µM (PI3kγ) of the same molecule?
A: 25 to 50%

Q: And the inhibition at 0.1 µM (PI3kδ; 100 nM (Examples 60-137))?
A: 25 to 50%

Q: What about the melting point of the same molecule?
A: 220 to 222 °C

Q: For `CC(c1oc2cccc(F)c2c(=O)c1-c1cccc(F)c1)n1nc(-c2ccc(CNC(=O)OC(C)(C)C)o2)c2c(N)ncnc21` (stereo not drawn) [Example 74, tert-butyl (5-(4-amino-1-(1-(5-fluoro-3-(3-fluorophenyl)-4-oxo-4H-chromen-2-yl)ethyl)-1H-pyrazolo[3,4-d]pyrimidin-3-yl)furan-2-yl)methylcarbamate], which inhibition at 1 µM (PI3kα) is on record?
A: 0 to 25%

Q: And the inhibition at 1 µM (PI3kβ)?
A: 25 to 50%

Q: What about the inhibition at 0.1 µM (PI3kγ) of the same molecule?
A: 25 to 50%

Q: And the inhibition at 0.1 µM (PI3kδ; 100 nM (Examples 60-137))?
A: 50 to 75%

Q: What about the melting point of the same molecule?
A: 163 to 166 °C

Q: Which inhibition at 1 µM (PI3kα) does the source give for `CC(c1oc2cccc(F)c2c(=O)c1-c1cccc(F)c1)n1nc(-c2ccc(CN3CCOCC3)s2)c2c(N)ncnc21` (stereo not drawn) [Example 76, 2-(1-(4-amino-3-(5-(morpholinomethyl)thiophen-2-yl)-1H-pyrazolo[3,4-d]pyrimidin-1-yl)ethyl)-5-fluoro-3-(3-fluorophenyl)-4H-chromen-4-one] here?
A: 0 to 25%

Q: What about the inhibition at 1 µM (PI3kβ) of the same molecule?
A: 25 to 50%

Q: What about the inhibition at 0.1 µM (PI3kγ) of the same molecule?
A: 25 to 50%

Q: And the inhibition at 0.1 µM (PI3kδ; 100 nM (Examples 60-137))?
A: 25 to 50%

Q: And the melting point?
A: 193 to 196 °C

Q: With `CC(c1oc2cccc(F)c2c(=O)c1-c1cccc(F)c1)n1nc(-c2ccc(-c3nnc(N)s3)cc2)c2c(N)ncnc21` (stereo not drawn) [Example 77, 2-(1-(4-amino-3-(4-(5-amino-1,3,4-thiadiazol-2-yl)phenyl)-1H-pyrazolo[3,4-d]pyrimidin-1-yl)ethyl)-5-fluoro-3-(3-fluorophenyl)-4H-chromen-4-one] as the molecule, how does the inhibition at 1 µM (PI3kα) read?
A: 25 to 50%

Q: What about the inhibition at 1 µM (PI3kβ) of the same molecule?
A: 50 to 75%

Q: And the inhibition at 0.1 µM (PI3kγ)?
A: 25 to 50%

Q: And the IC50 (PI3kδ)?
A: 50 to 100 nM

Q: What about the inhibition at 0.1 µM (PI3kδ; 100 nM (Examples 60-137)) of the same molecule?
A: 50 to 75%

Q: What about the melting point of the same molecule?
A: 202 to 205 °C

Q: For `Cc1nn(C)c2cc(-c3nn(C(C)c4oc5cccc(F)c5c(=O)c4-c4cccc(F)c4)c4ncnc(N)c34)ccc12` (stereo not drawn) [Example 79, 2-(1-(4-amino-3-(1,3-dimethyl-1H-indazol-6-yl)-1H-pyrazolo[3,4-d]pyrimidin-1-yl)ethyl)-5-fluoro-3-(3-fluorophenyl)-4H-chromen-4-one], which inhibition at 1 µM (PI3kα) is on record?
A: 25 to 50%

Q: What about the inhibition at 1 µM (PI3kβ) of the same molecule?
A: 25 to 50%

Q: And the inhibition at 0.1 µM (PI3kγ)?
A: 25 to 50%

Q: And the inhibition at 0.1 µM (PI3kδ; 100 nM (Examples 60-137))?
A: 0 to 25%

Q: And the melting point?
A: 220 to 224 °C

Q: With `Cc1c2ccc(-c3nn(C(C)c4oc5cccc(F)c5c(=O)c4-c4cccc(F)c4)c4ncnc(N)c34)cc2nn1C` (stereo not drawn) [Example 80, 2-(1-(4-amino-3-(2,3-dimethyl-2H-indazol-6-yl)-1H-pyrazolo[3,4-d]pyrimidin-1-yl)ethyl)-5-fluoro-3-(3-fluorophenyl)-4H-chromen-4-one] as the molecule, how does the inhibition at 1 µM (PI3kα) read?
A: 50 to 75%

Q: And the inhibition at 1 µM (PI3kβ)?
A: 25 to 50%

Q: And the inhibition at 0.1 µM (PI3kγ)?
A: 25 to 50%

Q: What about the inhibition at 0.1 µM (PI3kδ; 100 nM (Examples 60-137)) of the same molecule?
A: 50 to 75%

Q: What about the melting point of the same molecule?
A: 232 to 235 °C

Q: Which results are given for `CC(C)C(=O)Nc1ccc(-c2nn(C(C)c3oc4cccc(F)c4c(=O)c3-c3cccc(F)c3)c3ncnc(N)c23)cc1F` (stereo not drawn) [Example 81, N-(4-(4-amino-1-(1-(5-fluoro-3-(3-fluorophenyl)-4-oxo-4H-chromen-2-yl)ethyl)-1H-pyrazolo[3,4-d]pyrimidin-3-yl)-2-fluorophenyl)isobutyramide]?
A: inhibition at 1 µM (PI3kα): 25 to 50%; inhibition at 1 µM (PI3kβ): 25 to 50%; inhibition at 0.1 µM (PI3kγ): 25 to 50%; inhibition at 0.1 µM (PI3kδ; 100 nM (Examples 60-137)): 50 to 75%; melting point: 249 to 252 °C

Q: With `CC(=O)Nc1ccc(-c2nn(C(C)c3oc4cccc(F)c4c(=O)c3-c3cccc(F)c3)c3ncnc(N)c23)cc1F` (stereo not drawn) [Example 82, N-(4-(4-amino-1-(1-(5-fluoro-3-(3-fluorophenyl)-4-oxo-4H-chromen-2-yl)ethyl)-1H-pyrazolo[3,4-d]pyrimidin-3-yl)-2-fluorophenyl)acetamide] as the molecule, how does the inhibition at 1 µM (PI3kα) read?
A: 25 to 50%

Q: And the inhibition at 1 µM (PI3kβ)?
A: 25 to 50%

Q: And the inhibition at 0.1 µM (PI3kγ)?
A: 25 to 50%

Q: And the inhibition at 0.1 µM (PI3kδ; 100 nM (Examples 60-137))?
A: 25 to 50%

Q: What about the melting point of the same molecule?
A: 220 to 223 °C

Q: Which inhibition at 1 µM (PI3kα) does the source give for `CC(C)Oc1ccc(-c2nn(C(C)c3oc4cccc(F)c4c(=O)c3-c3cccc(F)c3)c3ncnc(N4CCOCC4)c23)cc1F` (stereo not drawn) [Example 85, 5-fluoro-2-(1-(3-(3-fluoro-4-isopropoxyphenyl)-4-morpholino-1H-pyrazolo[3,4-d]pyrimidin-1-yl)ethyl)-3-(3-fluorophenyl)-4H-chromen-4-one] here?
A: 0 to 25%

Q: And the inhibition at 1 µM (PI3kβ)?
A: 25 to 50%

Q: And the “% inhibition (PI3kγ) 100 nM” value (PI3kγ; 0.1 µM)?
A: C (C=>25 to 50%)

Q: What about the “% inhibition (PI3kδ) 100 nM” value (PI3kδ; 100 nM (Examples 60-137), 0.1 µM) of the same molecule?
A: C (C=>25 to 50%)

Q: What about the melting point of the same molecule?
A: 116 to 119 °C

Q: What does the source list for `CC(C)C(=O)Nc1ccc(-c2nn(C(C)c3oc4cccc(F)c4c(=O)c3-c3cccc(F)c3)c3ncnc(N4CCOCC4)c23)cc1F` (stereo not drawn) [Example 87, N-(2-fluoro-4-(1-(1-(5-fluoro-3-(3-fluorophenyl)-4-oxo-4H-chromen-2-yl)ethyl)-4-morpholino-1H-pyrazolo[3,4-d]pyrimidin-3-yl)phenyl)isobutyramide]?
A: inhibition at 1 µM (PI3kα): 25 to 50%; inhibition at 1 µM (PI3kβ): 50 to 75%; inhibition at 0.1 µM (PI3kγ): 0 to 25%; IC50 (PI3kδ): 100 to 300 nM; inhibition at 0.1 µM (PI3kδ; 100 nM (Examples 60-137)): 50 to 75%; melting point: 168 to 170 °C

Q: With `Cc1n[nH]c2cc(-c3nn(C(C)c4oc5cccc(F)c5c(=O)c4-c4cccc(F)c4)c4ncnc(N5CCOCC5)c34)ccc12` (stereo not drawn) [Example 112, 5-fluoro-3-(3-fluorophenyl)-2-(1-(3-(3-methyl-1H-indazol-6-yl)-4-morpholino-1H-pyrazolo[3,4-d]pyrimidin-1-yl)ethyl)-4H-chromen-4-one] as the molecule, how does the inhibition at 1 µM (PI3kα) read?
A: 50 to 75%

Q: What about the inhibition at 1 µM (PI3kβ) of the same molecule?
A: 0 to 25%

Q: And the inhibition at 0.1 µM (PI3kγ)?
A: 50 to 75%

Q: And the inhibition at 0.1 µM (PI3kδ; 100 nM (Examples 60-137))?
A: 50 to 75%

Q: And the melting point?
A: 183 to 186 °C

Q: Which results are given for `CC(C)Oc1ccc(-c2nn(C(C)c3oc4cccc(N5CCOCC5)c4c(=O)c3-c3ccccc3)c3ncnc(N)c23)cc1F` (stereo not drawn) [Example 121, 2-(1-(4-amino-3-(3-fluoro-4-isopropoxyphenyl)-1H-pyrazolo[3,4-d]pyrimidin-1-yl)ethyl)-5-morpholino-3-phenyl-4H-chromen-4-one]?
A: inhibition at 1 µM (PI3kα): 25 to 50%; inhibition at 1 µM (PI3kβ): 25 to 50%; inhibition at 0.1 µM (PI3kγ): 50 to 75%; inhibition at 0.1 µM (PI3kδ; 100 nM (Examples 60-137)): 0 to 25%; melting point: 211 to 214 °C

Q: Which inhibition at 1 µM (PI3kα) does the source give for `CC(c1oc2cccc(F)c2c(=O)c1-c1cccc(F)c1)n1nc(-c2ccc3c(c2)CNC3=O)c2c(N)ncnc21` (stereo not drawn) [Example 123, 5-(4-amino-1-(1-(5-fluoro-3-(3-fluorophenyl)-4-oxo-4H-chromen-2-yl)ethyl)-1H-pyrazolo[3,4-d]pyrimidin-3-yl)isoindolin-1-one] here?
A: 0 to 25%

Q: And the inhibition at 1 µM (PI3kβ)?
A: 25 to 50%

Q: And the inhibition at 0.1 µM (PI3kγ)?
A: 0 to 25%

Q: What about the inhibition at 0.1 µM (PI3kδ; 100 nM (Examples 60-137)) of the same molecule?
A: 50 to 75%

Q: What about the melting point of the same molecule?
A: 293 to 296 °C

Q: For `CC(Nc1ncnc2[nH]cnc12)c1oc2cccc(F)c2c(=O)c1-c1ccccc1F` (stereo not drawn) [Example 131, 2-(1-(9H-purin-6-ylamino)ethyl)-5-fluoro-3-(2-fluorophenyl)-4H-chromen-4-one], which inhibition at 1 µM (PI3kα) is on record?
A: 25 to 50%

Q: And the inhibition at 1 µM (PI3kβ)?
A: 0 to 25%

Q: What about the inhibition at 0.1 µM (PI3kγ) of the same molecule?
A: 25 to 50%

Q: What about the inhibition at 0.1 µM (PI3kδ; 100 nM (Examples 60-137)) of the same molecule?
A: 25 to 50%

Q: And the melting point?
A: 203 to 205 °C
